Laboratory results from patent US9890129B2, “Aminoalkylbenzothiazepine derivatives and uses thereof” (CJ Healthcare Corporation, priority 2014, dated 2018).

System: SD rats
Assay: Feces excretion time and evaluation of efficiency (barium-containing diet, oral administration)
Assay type: in vivo, rat
Details: for Feces excretion time (min) @ volume (mg/kg): observed 10 hours
Experimental: Eight-week-old SD rats were purchased and allowed to adapt to breeding conditions under 12-hour illumination at 24° C. for 7 days. The rats were made to fast for 16 hours before the experimental day, and orally administered on the experimental day with a vehicle (0.5% methylcellulose) and a test material, […], respectively. Thirty minutes after the administration, the rats fed with 3 g of a barium-containing diet were placed into a metabolism cage and observed to record the time required for the barium to be excreted as feces in each rat after being passed through the intestines for 10 hours. Additionally, the percentage of rats that excreted barium-containing feces within 10 hours were calculated, and the results are shown in Table 1 below.

| SMILES | Percentage of subjects excreting feces within 10 hours (%) (0.1 mg/kg) | Feces excretion time (min) @ volume (mg/kg) (0.1 mg/kg) | Percentage of subjects excreting feces within 10 hours (%) (1 mg/kg) | Feces excretion time (min) @ volume (mg/kg) (1 mg/kg) | Percentage of subjects excreting feces within 10 hours (%) (5 mg/kg) | Feces excretion time (min) @ volume (mg/kg) (5 mg/kg) |
| --- | --- | --- | --- | --- | --- | --- |
| CCCCC1(CCCC)CN(c2ccccc2)c2cc(SC)c(CNCC(=O)O)cc2S(=O)(=O)C1 [Example 1, 2-(((3,3-dibutyl-7-methylthio-1,1-dioxido-5-phenyl-2,3,4,5-tetrahydrobenzo[b][1,4]thiazepine-8-yl)methyl)amino)acetic acid] | B @ 0.1 (B: 50-75%) | C @ 0.1 (C: 501-590 min) | A @ 1 (A: 76-100%) | B @ 1 (B: 401-500 min) | A @ 5 (A: 76-100%) | A @ 5 (A: 301-400 min) |
| CCCCC1(CCCC)CN(c2ccccc2)c2cc(SC)c(CNC(=O)CS(=O)(=O)O)cc2S(=O)(=O)C1 [Example 18, 2-(((3,3-dibutyl-7-methylthio-1,1-dioxido-5-phenyl-2,3,4,5-tetrahydrobenzo[b][1,4]thiazepine-8-yl)methyl)amino)-2-oxoethanesulfonic acid] |  |  | B @ 1 (B: 50-75%) | B @ 1 (B: 401-500 min) |  |  |
| CCCCC1(CCCC)CN(c2ccc(OC)cc2)c2cc(SC)c(CNCC(=O)O)cc2S(=O)(=O)C1 [Example 19, 2-(((3,3-dibutyl-5-(4-methoxyphenyl)-7-methylthio-1,1-dioxido-2,3,4,5-tetrahydrobenzo[b][1,4]thiazepine-8-yl)methyl)amino)acetic acid] |  |  | A @ 1 (A: 76-100%) | C @ 1 (C: 501-590 min) | A @ 5 (A: 76-100%) | B @ 5 (B: 401-500 min) |
| CCCCC1(CCCC)CN(c2ccc(O)cc2)c2cc(SC)c(CNCC(=O)O)cc2S(=O)(=O)C1 [Example 20, 2-(((3,3-dibutyl-5-(4-hydroxyphenyl)-7-methylthio-1,1-dioxido-2,3,4,5-tetrahydrobenzo[b][1,4]thiazepine-8-yl)methyl)amino)acetic acid] | A @ 0.1 (A: 76-100%) | C @ 0.1 (C: 501-590 min) | A @ 1 (A: 76-100%) | B @ 1 (B: 401-500 min) | A @ 5 (A: 76-100%) | A @ 5 (A: 301-400 min) |
| CCCCC1(CCCC)CN(c2ccc(F)cc2)c2cc(SC)c(CNCC(=O)O)cc2S(=O)(=O)C1 [Example 22, 2-(((3,3-dibutyl-5-(4-fluorophenyl)-7-methylthio-1,1-dioxido-2,3,4,5-tetrahydrobenzo[b][1,4]thiazepine-8-yl)methyl)amino)acetic acid] | A @ 0.1 (A: 76-100%) | B @ 0.1 (B: 401-500 min) | A @ 1 (A: 76-100%) | B @ 1 (B: 401-500 min) | A @ 5 (A: 76-100%) | A @ 5 (A: 301-400 min) |
| CCCCC1(CCCC)CN(c2ccc(OC)c(F)c2)c2cc(SC)c(CNCC(=O)O)cc2S(=O)(=O)C1 [Example 24, 2-(((3,3-dibutyl-5-(3-fluoro-4-methoxyphenyl)-7-methylthio-1,1-dioxido-2,3,4,5-tetrahydrobenzo[b][1,4]thiazepine-8-yl)methyl)amino)acetic acid] |  |  | A @ 1 (A: 76-100%) | C @ 1 (C: 501-590 min) | A @ 5 (A: 76-100%) | A @ 5 (A: 301-400 min) |
